Results reported in paper PMC7022278, “Alpha-Amylase and Alpha-Glucosidase Enzyme Inhibition and Antioxidant Potential of 3-Oxolupenal and Katononic Acid Isolated from Nuxia oppositifolia” (Biomolecules, 2019).
pIC50: −log10 of the molar value. Values joined by “and” are separate entries in the source; they are usually repeats but may differ in a detail not shown here. Identical values can stand only once.

Key:
[1] = DPPH radical scavenging activity; settings: for DPPH Scavenging Activity (IC50 value): means of three experiments ± SD; for pIC50: molar value in brackets
Experimental: The DPPH radical scavenging method measured the antioxidant activity following the method of Braca et al. (2001) with slight modification. The crude extract, fractions, and compounds at 100 µg/mL concentrations were added to 3 mL of 0.004% DPPH solution. In the control sample, methanol was added in place of test extract/fractions/compounds. The DPPH is violet in color at room temperature and the color changes to yellow by either the process of hydrogen or electron donation by antioxidants. Absorbance was measured at 520 nm after 30 min incubation. The percent inhibition was calculated using Equation (1).

[2] = ABTS radical cation scavenging activity; settings: for ABTS Scavenging Activity (IC50 value): means of three experiments ± SD; for pIC50: molar value in brackets
Experimental: The ABTS radical scavenging activity of the samples was measured using the method of Re et al. (1999) with slight modification. ABTS solution in water (7 mM concentration) and an aqueous solution of potassium persulfate (2.45 mM) were prepared. The two solutions were mixed in the volume ratio 1:1 and stored in the dark 6 h at room temperature to produce the ABTS radical. The blue chromophore, which has a characteristic absorbance at 734 nm, was generated by reacting equal amount of ABTS and potassium persulfate solution. The ABTS stock solution was diluted with ethanol to an absorbance of 0.70 ± 0.02 at 734 nm and equilibrated at 30 °C. The crude extract, different fractions and isolated compounds at 100 µg/mL concentrations were mixed with 2.9 mL of diluted ABTS radical cation solution. The reaction was incubated at 30 °C for 20 min, and the absorbance at 734 nm was measured. The affinity of the test sample to quench the ABTS free radical was evaluated using Equation (1).

[3] = molecular target: T1, Porcine α-amylase (pancreatic α-amylase) (Sus scrofa, UniProt P00690); assay: Inhibition assay for amylase activity (starch/DNS); type: biochemical
T1 construct: purchased Sigma-Aldrich Co., St Louis, MO, USA
T1 sequence (P00690 16-511): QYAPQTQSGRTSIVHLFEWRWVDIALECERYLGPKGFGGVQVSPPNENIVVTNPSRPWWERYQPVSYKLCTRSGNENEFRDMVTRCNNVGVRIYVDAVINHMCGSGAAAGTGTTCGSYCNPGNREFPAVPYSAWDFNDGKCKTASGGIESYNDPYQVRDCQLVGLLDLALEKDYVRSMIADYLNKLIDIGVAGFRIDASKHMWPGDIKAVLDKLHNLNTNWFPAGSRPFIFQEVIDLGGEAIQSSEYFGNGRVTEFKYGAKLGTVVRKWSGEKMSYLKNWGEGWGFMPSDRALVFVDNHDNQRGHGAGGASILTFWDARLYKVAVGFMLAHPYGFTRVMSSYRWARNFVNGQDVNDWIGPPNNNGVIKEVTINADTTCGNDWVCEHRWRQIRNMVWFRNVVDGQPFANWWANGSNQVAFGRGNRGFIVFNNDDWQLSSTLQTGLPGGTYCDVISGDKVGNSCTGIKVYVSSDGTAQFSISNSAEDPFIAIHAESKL
Experimental: The different fractions of the plant and compounds were prepared using 5% dimethyl sulfoxide (DMSO). Fraction/compound (500 µL) of 100 µg/mL concentration (i.e., 50 µg) and 500 µL of 20 mM sodium phosphate buffer (pH 6.8) containing 20 µL of amylase (0.5 mg/mL) were incubated at 25 °C for 10 min. After pre-incubation, 500 µL of 1% starch solution in 0.02 M sodium phosphate buffer (pH 6.9) were added to each tube and incubated for 15 min. The reaction was stopped with 1.0 mL of dinitrosalicyclic acid. The test tubes were then incubated in a boiling water bath for 5 min and cooled to room temperature. The reaction mixture was then diluted after adding 10 mL distilled water, and the absorbance (Abs) was measured at 540 nm. Mean values were obtained from triplicate experiments. The control samples were prepared without any plant extracts/fractions/compounds. The percent inhibition of amylase activity was calculated using the following formula:(1) Inhibition(%)=(AbsControl−AbsCompound/AbsControl)×100 The mean values were obtained from triplicate experiments.

α-glucosidase [4] = assay: Inhibition assay for glucosidase activity (pNPG); type: biochemical; settings: for Inhibition of α-Glucosidase (IC50 value): means of three experiments ± SD; for pIC50: molar value in brackets
Experimental: Glucosidase inhibition assay was carried out by following the method of Elya et al. (2008). The different fractions of the plant and compounds were prepared using 5% dimethyl sulfoxide (DMSO). […] Next, 50 μL of 5 mM p-nitrophenyl-α-D-glucopyranoside (pNPG) were added to the mixture to start the reaction. The reaction mixture was incubated at 37 °C for 60 min and stopped by adding 2.5 mL of 0.1 M Na2CO3. […] The mean values were obtained from triplicate experiments. The inhibition of glucosidase activity was calculated as percentage inhibition using Equation (1).

α-amylase = molecular target: T2, α-amylase (Sus scrofa, UniProt P00690); assay: Fluorescence quenching-based binding study, α-amylase; settings: 298 K; for Number of Binding Sites n: pH 6.8
T2 construct: purchased Sigma-Aldrich Co., St Louis, MO, USA
T2 sequence (P00690 16-511): T1 sequence (P00690 16-511)
Experimental: (§1) Proteins were excited at 295 nm and the fluorescence spectra were recorded in the 300–450 nm range. The excitation and emission slit widths were set at 5 nm each. The concentration of proteins was fixed at 2 µM while the concentration of quenchers was varied. The inner filter effect contributed by quenchers was corrected using the following relation. (2) Fcorr=Fobs×e^(Aex+Aem)/2 where Fcorr is the corrected fluorescence intensity, Fobs is the observed fluorescence intensity, Aex is the absorbance at the excitation wavelength, and Aem is the absorbance at the emission wavelength.
(§2) Observing quenching in the fluorescence intensity of a protein in the presence of a ligand is a powerful tool in determining the binding parameters such as binding affinity and Gibb’s free energy of stabilization. Here, we have followed quenching in the fluorescence intensity of α-amylase and α-glucosidase in the presence of 3-oxolupenal and katononic acid at 298 K (Figure 4 and Figure 5). […] The binding parameters for the interaction were deduced using the following Stern–Volmer and modified Stern–Volmer equations. (3) Fo/F=1+KSV[Q]=1+kqτo[Q] (4) log(Fo−F/F)=logKa+nlog[Q] where, Fo and F are the fluorescence intensities of enzymes (α-amylase and α-glucosidase) in the absence and presence of ligands (3-oxolupenal and katononic acid); KSV is the Stern–Volmer constant; [Q] is the molar concentration of ligands (3-oxolupenal and katononic acid); kq is the bimolecular quenching rate constant; τo is the lifetime of enzymes’ fluorescence in the absence of ligands (=5.71 × 10^−9 s); Ka is the binding constant; n is the number of binding sites on the enzyme.

α-glucosidase [5] = assay: Fluorescence quenching-based binding study, α-glucosidase; settings: 298 K
Experimental: as §1, §2

[6] = means of three experiments ± SD
[7] = pH 6.8, listed as Katononic Acid
[8] = pH 6.8, listed as katononic acid

SMILES	DPPH Scavenging Activity (IC50 value) [1] [µg/mL]	pIC50 [1]	ABTS Scavenging Activity (IC50 value) [2] [µg/mL]	pIC50 [2]	pIC50 [3, 6]	pIC50 ([3]; molar value in brackets)	Inhibition of α-Glucosidase (IC50 value) (α-glucosidase [4]) [µg/mL]	pIC50 (α-glucosidase [4])	Number of Binding Sites n (α-amylase)	Bimolecular Quenching Rate Constant (kq) (α-glucosidase [5]; [7]) [M⁻¹ s⁻¹]	Stern–Volmer Constant (KSV) (α-glucosidase [5]; [7]) [M⁻¹]	Bimolecular Quenching Rate Constant (kq) (α-glucosidase [5]; [8])	Stern–Volmer Constant (KSV) (α-glucosidase [5]; [8])	Bimolecular Quenching Rate Constant (kq) (α-amylase; [7]) [M⁻¹ s⁻¹]	Stern–Volmer Constant (KSV) (α-amylase; [7]) [M⁻¹]	Bimolecular Quenching Rate Constant (kq) (α-amylase; [8])	Stern–Volmer Constant (KSV) (α-amylase; [8])
Cc1cc(C(C)(C)C)c(O)c(C(C)(C)C)c1 [BHT, butylated hydroxytoluene, reference compound]	16.6 ± 6.2	4.12	28.0 ± 1.9	3.90													
C=C(C=O)[C@@H]1CC[C@]2(C)CC[C@]3(C)[C@H](CC[C@@H]4[C@@]5(C)CCC(=O)C(C)(C)[C@@H]5CC[C@]43C)[C@@H]12 [3-oxolupenal]	82.7 ± 6.7	3.72	84.2 ± 5.1	3.72	3.98	3.99 and 3.98	62.3 ± 2.4	3.85	1.0865								
CC1(C)C(=O)CC[C@]2(C)[C@H]3CC=C4[C@@H]5C[C@](C)(C(=O)O)CC[C@]5(C)CC[C@@]4(C)[C@]3(C)CC[C@@H]12 [Katononic acid, katononic acid]	87.5 ± 5.4	3.72	82.7 ± 4.7	3.74	3.94	3.92 and 3.94	88.6 ± 6.2	3.71	0.7646	3.59e+13	205000	~10^13 M^−1 s^−1	~10^5 M^−1	2.77e+13	158000	~10^13 M^−1 s^−1	~10^5 M^−1
